Experimental data reported in ChEMBL document CHEMBL1201862, “PubChem BioAssay data set” (2004).
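Assay format: 96-well plates, 48-hour exposure. The concentration for 50% growth inhibition is given as GI50.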 Activity calls are given as the source filed them. No stated cut-off is given here; in the data, active = GI50 up to about 1.1 µM and inactive = higher.

Tests used:
Assay in all cases: growth of human tumour cells (NCI), 48 h
[1] = test system: MOLT-4
[2] = test system: Hs-578T
[3] = test system: SK-OV-3
[4] = test system: SR
[5] = test system: NCI-H460
[6] = test system: K562
[7] = test system: OVCAR-8
[8] = test system: HT-29
[9] = test system: ACHN
[10] = test system: LOX IMVI
[11] = test system: RPMI-8226
[12] = test system: 786-0
[13] = test system: SW-620
[14] = test system: TK-10
[15] = test system: PC-3
[16] = test system: UO-31
[17] = test system: SK-MEL-2
[18] = test system: MDA-N
[19] = test system: HOP-92
[20] = test system: A498

Measured: GI50

CCCCCC(=O)n1[nH]c(=O)n(-c2ccc(OC)cc2)c1=O
inactive: [1] > 100 µM | [2] > 100 µM | [3] > 100 µM | [4] > 100 µM | [5] > 100 µM | [6] > 100 µM | [7] > 100 µM | [8] > 100 µM | [9] > 100 µM | [10] > 100 µM | [11] > 100 µM | [12] > 100 µM | [13] > 100 µM | [14] > 100 µM | [15] > 100 µM | [16] > 100 µM | [17] > 100 µM | [18] > 100 µM

O=C(O)CSC1=NC(=O)C2(NN1)c1ccccc1-c1ccccc12
inactive: [1] > 10 µM | [2] > 10 µM | [3] > 10 µM | [4] > 10 µM | [5] > 10 µM | [6] > 10 µM | [7] > 10 µM | [8] > 10 µM | [9] > 10 µM | [19] > 10 µM | [10] > 10 µM | [11] > 10 µM | [12] > 10 µM | [13] > 10 µM | [14] > 10 µM | [15] > 10 µM | [16] > 10 µM | [18] > 10 µM

O=C(Nc1sccc1S(=O)(=O)c1ccccc1)c1ccccc1
inactive: [1] > 100 µM | [2] > 100 µM | [3] > 100 µM | [5] > 31.6 µM | [6] 1.91 µM | [7] > 100 µM | [8] > 31.6 µM | [9] > 100 µM | [19] > 100 µM | [10] > 100 µM | [20] > 100 µM | [11] > 100 µM | [12] > 100 µM | [13] > 84.3 µM | [14] > 100 µM | [15] > 100 µM | [16] > 100 µM | [17] > 100 µM | [18] 3.73 µM

CC(=O)OCCn1c(Cc2ccc(Cl)cc2)nn(C(C)=O)c1=O
inactive: [1] > 100 µM | [2] > 100 µM | [3] > 100 µM | [5] > 100 µM | [6] > 100 µM | [7] > 100 µM | [8] > 100 µM | [9] > 100 µM | [19] > 100 µM | [10] > 100 µM | [20] > 100 µM | [11] > 100 µM | [12] > 100 µM | [13] > 100 µM | [14] > 100 µM | [15] > 100 µM | [16] > 100 µM | [17] > 100 µM | [18] > 100 µM

[O-][S+](Nc1ccccc1)c1ccccc1Oc1ccccc1 (centres undefined)
inactive: [1] 19.1 µM | [2] 2.84 µM | [4] 7.41 µM | [5] 35.3 µM | [6] 48.6 µM | [7] 26.9 µM | [8] 60.5 µM | [9] 46 µM | [10] 19.7 µM | [11] 43.3 µM | [12] 24.7 µM | [13] > 100 µM | [14] > 100 µM | [15] 39.2 µM | [16] 20.9 µM | [18] 57.1 µM

CC1=CC(C2/C(=N/O)C=C(C)CC2(C)C)C(O)C(C)(C)C1 (centres undefined)
inactive: [1] 13.5 µM | [2] 31.8 µM | [3] 17.9 µM | [5] 21.3 µM | [6] 14.2 µM | [7] 17.5 µM | [8] 14.3 µM | [9] 18.9 µM | [19] 14.1 µM | [10] 16.8 µM | [20] 18 µM | [11] 14 µM | [12] 17.4 µM | [13] 15.7 µM | [14] 19.1 µM | [15] 16.1 µM | [16] 15.6 µM | [17] 16 µM | [18] 17 µM

CCOC(=O)C1=CC(C)(C(=O)OCC)Nc2c(nc(OC)n(C)c2=O)N1 (centres undefined)
inactive: [1] > 10 µM | [2] > 10 µM | [3] > 10 µM | [5] > 10 µM | [6] > 10 µM | [7] > 10 µM | [8] > 10 µM | [9] > 10 µM | [19] > 10 µM | [10] > 10 µM | [20] > 10 µM | [11] > 10 µM | [12] > 10 µM | [13] > 10 µM | [14] > 10 µM | [15] > 10 µM | [16] > 10 µM | [17] > 10 µM | [18] > 10 µM

COC(=O)[C@@H]1[C@H]2CC[C@]3(C)[C@@H](OC(C)=O)CC[C@H]3[C@@H]2CC[C@H]1C(C)=O
inactive: [1] > 100 µM | [2] > 100 µM | [3] > 100 µM | [5] > 100 µM | [6] > 100 µM | [7] > 100 µM | [8] > 100 µM | [9] > 100 µM | [19] > 100 µM | [10] > 100 µM | [20] > 100 µM | [11] > 100 µM | [12] > 100 µM | [13] > 100 µM | [14] > 100 µM | [15] > 100 µM | [16] > 100 µM | [17] > 100 µM | [18] > 100 µM

CNC1NC(=O)c2ccccc2N1Cc1ccc(F)cc1 (centres undefined)
inactive: [1] > 100 µM | [2] > 100 µM | [3] > 100 µM | [5] > 100 µM | [6] > 100 µM | [7] > 100 µM | [8] > 100 µM | [9] > 100 µM | [19] > 100 µM | [10] > 100 µM | [20] > 100 µM | [11] > 100 µM | [12] > 100 µM | [13] > 100 µM | [14] > 100 µM | [15] > 100 µM | [16] 11.1 µM | [17] > 100 µM | [18] > 100 µM

CN(C)Cc1cc(O)c(O)c(CN(C)C)c1
inactive: [1] 27.9 µM | [2] > 100 µM | [3] 54.1 µM | [5] 21.4 µM | [6] 33 µM | [7] 35.2 µM | [8] 40.2 µM | [9] 34.5 µM | [19] > 100 µM | [10] 36 µM | [20] > 100 µM | [11] 35.7 µM | [12] 31.4 µM | [13] 64.3 µM | [14] 37.5 µM | [15] 48.8 µM | [16] 25.9 µM | [17] 37.2 µM | [18] 57.8 µM

COc1ccc(OC)c2c1C1CCC(=O)N1CN2C(C)=O (centres undefined)
inactive: [1] > 100 µM | [2] > 100 µM | [3] > 100 µM | [5] > 100 µM | [6] > 100 µM | [7] > 100 µM | [8] > 100 µM | [9] > 100 µM | [19] > 100 µM | [10] > 100 µM | [20] > 100 µM | [11] > 100 µM | [12] > 100 µM | [13] > 100 µM | [14] > 100 µM | [15] > 100 µM | [16] > 100 µM | [17] > 100 µM | [18] > 100 µM
